Test results published in BindingDB's records for doi:10.1021/jm960573f (University of Washington, 1997).
pKi: −log10 of the molar value. “And” between values parts separate entries of the source, which are not always exact repeats. Equal entries are not always repeated.

Experiment: Binding affinity was determined in a crude membrane preparation from guinea pig brain by displacement of [3H]DPDPE from Opioid receptor delta 1

In the case of `O=C1/C(=C\c2ccccc2)C[C@@]2(O)[C@H]3Cc4ccc(O)c5c4[C@@]2(CCN3CC2CC2)[C@H]1O5`, the pKi was 8.43.
For `O=C1C(=Cc2ccc3ccccc3c2)C[C@@]2(O)[C@H]3Cc4ccc(O)c5c4C2(CCN3CC2CC2)[C@H]1O5` [4-cyclopropylmethyl-10,17-dihydroxy-15-[1-(2-naphthyl)-(E)-methylidene]-(5R,13R,17S)-12-oxa-4-azapentacyclo[9.6.1.01,13.05,17.07,18]octadeca-7(18),8,10-trien-14-one], the pKi was 7.41.
For `O=C1C(=Cc2ccc(-c3ccccc3)cc2)C[C@@]2(O)[C@H]3Cc4ccc(O)c5c4C2(CCN3CC2CC2)[C@H]1O5`, the pKi was 7.12 and 7.33.
In the case of `O=C1C(=Cc2c3ccccc3cc3ccccc23)C[C@@]2(O)[C@H]3Cc4ccc(O)c5c4C2(CCN3CC2CC2)[C@H]1O5`, the pKi was 8.62 and 7.77.
For `O=C1C(=Cc2cccc3ccccc23)C[C@@]2(O)[C@H]3Cc4ccc(O)c5c4C2(CCN3CC2CC2)[C@H]1O5` [4-cyclopropylmethyl-10,17-dihydroxy-15-[1-(1-naphthyl)-(Z)-methylidene]-(5R,13R,17S)-12-oxa-4-azapentacyclo[9.6.1.01,13.05,17.07,18]octadeca-7(18),8,10-trien-14-one], the pKi was 8.34 and 9.15.
`O=C1/C(=C/c2ccccc2)C[C@@]2(O)[C@H]3Cc4ccc(O)c5c4[C@@]2(CCN3CC2CC2)[C@H]1O5` [7-Benzylidenenaltrexone] gave a pKi of 8.21.
